In patent US12570612B2, “Substituted nitrogen heterocyclic compound and anesthetic effect thereof” (priority 2019, dated 2026):
Where two headings read alike, the source gives them in different places.

Tests used:
Sprague-Dawley rats [1] = assay type: in vivo; details: tail vein
adrenal cortex function [2] = test: Adrenocortical function in rats: corticosterone after dexamethasone and ACTH, Group C compounds; details: for Give ACTH 30min later(S2) corticosterone concentration: drug at 2ED50, 30 min after ACTH 25 ug/kg; for Baseline(S1) corticosterone concentration: two hours after dexamethasone 0.5 mg/kg, before drug
Description: (§1) Instruments and equipment: multi-function ion meter (METTLER TOLEDO, models: SevenMulti), pipetting gun (Eppendorf, specifications: 1000 ul, 200 ul, 100 ul, 10 ul), electronic balance (model: ME215S, manufacturers: Sartorius, Germany), the timer. Experimental Method: Adult male Sprague-Dawley rats (250-300 g) were selected for the experiment (n=8), all the experiment were started in the morning. Place indwelling needles in tail vein of rats and inject dexamethasone (0.5 mg/kg). The first time of blood collection (S1) is in two hours later, and give dexamethasone (0.2 mg/kg). […] All the drugs were administered in a volume of 0.6 ml and at a rate of 0.1 ml/s. 15 min later, exogenous ACTH (25 ug/kg) was injected. Another blood sample was collected after 30 min(S2). The blood samples were left standing at room temperature for 30-60 min, followed by centrifugation at 3500 rpm for 10 min. The supernatant was taken and centrifuged again at 15000 rpm for 5 min before being frozen and stored in a −20° C. refrigerator.
(§2) Evaluation indexes: The concentration of the corticosterone in the supernatant of rats before and after given drugs.

SD rats [3] = details: for After the infusion is stopped: Righting reflex recovery time / Recovery time after stopping infusion: after 1 hour continuous infusion at 2 times the MIR; for After the infusion is stopped: Righting reflex recovery time / Recovery time after stopping infusion / Sedation onset time: SD rats; for Sedation onset time: continuous tail vein infusion at 2 times the MIR
Description: (§3) Experimental Methods: Adult male SD rats with body weight ranging from 250 g to 350 g were selected for continuous infusion test.
(§4) Evaluation indexes: the time from the beginning of continuous infusion to the […] of sedation in rats; the time from the cessation of infusion to the restoration of the forepaw turning reflex after 1 hour of continuous infusion; the time from the cessation of infusion to the complete restoration of rats after 1 hour of continuous infusion.

Sprague-Dawley rats [4] = test: Pharmacological effect and adverse reactions under the equivalent dose (2ED50), Group C compounds; assay type: in vivo; details: for Righting reflex duration / Sedation duration / Onset time: 2ED50, tail vein, rats, n=8; for Onset time: unit s; for Adverse reaction: Convulsions / Adverse reaction: Cough, broken-winded / Adverse reaction: Euphoria / Adverse reaction: Red urine / Adverse reaction: Slower breathing, Tetany convulsion / Adverse reaction: Systemic stiffness, Convulsions, Opisthotonus / Adverse reaction: Tongue stretching / Adverse reaction: Tremor / Adverse reaction: the four limbs rigidity: equivalent dose (2ED50), number of rats of n = 8
Description: (§5) Evaluation index: onset time: from the completion of drug injection to the disappearance of forepaw righting reflex in rats; Duration of anesthesia: the time from the disappearance of rat forepaw righting reflex to the recovery of rat forepaw righting reflex; Recovery time of anesthesia: the time from the […] to complete recovery;

Sprague-Dawley rats [5] = test: animal or person; assay type: in vivo; details: rats; for ED50: LORR, up and down method, tail vein, class symbols
Description: (§6) Evaluating indicator: The end point of anesthesia: LORR was used as the end point of anesthesia; General anesthesia effect: the disappearance of forepaw righting reflex in rats lasting for 30 seconds is taken as the index of general anesthesia effect; Anesthesia recovery index: the recovery of rat forepaw righting reflex was used as the index of anesthesia recovery.

Sprague-Dawley rats [6] = test: Pharmacological effect and adverse reactions under the equivalent dose (2ED50), Group D compounds; assay type: in vivo
Description: as §5

Sprague-Dawley rats [7] = test: animal or person; assay type: in vivo; details: rats
Description: as §6, with “the disappearance of forepaw righting reflex (lorr)” for “LORR”

adrenal cortex function [8] = test: Adrenocortical function in rats: corticosterone after dexamethasone and ACTH, Group D compounds; details: for Baseline(S1) corticosterone concentration: before drug
Description: as §1, with “Equipment:” for “equipment:”, “min (S2).” for “min(S2).”
as §2

SD rats [9] = test system: SD rats
Description: as §3, §4

Sprague-Dawley rats [10] = assay type: in vivo; details: tail vein; remark: listed apart in the source
[11] = continuous infusion 2 x MIR 1 hour, rats affected/rats
[12] = equivalent dose (2 × ED50), number of rats of n = 8
[13] = after 1 hour continuous infusion at 2 times the MIR, SD rats

Compound: CC#CCOCC(=O)c1cncn1[C@H](C)c1ccccc1 [Compound C27]
- Minimal lethal dose (Sprague-Dawley rats [1]): >13.6 mg/kg
- Give ACTH 30min later(S2) corticosterone concentration (adrenal cortex function [2]): 253.11 ± 34.56
- Baseline(S1) corticosterone concentration (adrenal cortex function [2]): 180.33 ± 46.70
- After the infusion is stopped: Righting reflex recovery time (SD rats [3]): 12 to 16 min
- Recovery time after stopping infusion (SD rats [3]): 15 to 20 min
- Types and incidence of adverse reactions: Red urine (SD rats [3]; [11]): 6/6
- Types and incidence of adverse reactions: Tremor (SD rats [3]; [11]): 5/6
- Sedation onset time (SD rats [3]): <5 min
- Righting reflex duration (Sprague-Dawley rats [4]): 1.48 ± 0.14 min
- Sedation duration (Sprague-Dawley rats [4]): 4.39 ± 0.94 min
- Onset time (Sprague-Dawley rats [4]): <30 s
- Adverse reaction: Convulsions (Sprague-Dawley rats [4]): 0
- Adverse reaction: Cough, broken-winded (Sprague-Dawley rats [4]): 0
- Adverse reaction: Euphoria (Sprague-Dawley rats [4]): 0
- Adverse reaction: Red urine (Sprague-Dawley rats [4]): 8
- Adverse reaction: Slower breathing, Tetany convulsion (Sprague-Dawley rats [4]): 0
- Adverse reaction: Systemic stiffness, Convulsions, Opisthotonus (Sprague-Dawley rats [4]): 1
- Adverse reaction: Tongue stretching (Sprague-Dawley rats [4]): 2
- Adverse reaction: Tremor (Sprague-Dawley rats [4]): 0
- Adverse reaction: the four limbs rigidity (Sprague-Dawley rats [4]): 0
- ED50 (Sprague-Dawley rats [5]): ++ (++ means that the measured ED50 is in the range of 0.50-1.00 mg/kg (excluding 0.50 mg/kg, including 1.00 mg/kg))
- Approximate therapeutic index (Sprague-Dawley rats [5]): >16.6

Compound: CCOC(OCC)(OCC)C(=O)c1cncn1[C@H](C)c1ccccc1 [Compound D76]
- Righting reflex duration (Sprague-Dawley rats [6]; 2ED50, tail vein, rats, n=8): 1.67 ± 1.32 min
- Sedation duration (Sprague-Dawley rats [6]; 2ED50, tail vein, rats, n=8): 6.44 ± 1.82 min
- Onset time (Sprague-Dawley rats [6]; 2ED50, tail vein, rats, n=8, unit min): <1 min
- Adverse reaction: Convulsions (Sprague-Dawley rats [6]; [12]): 0
- Adverse reaction: Cough, broken-winded (Sprague-Dawley rats [6]; [12]): 0
- Adverse reaction: Euphoria (Sprague-Dawley rats [6]; [12]): 0
- Adverse reaction: Four limbs rigidity (Sprague-Dawley rats [6]; [12]): 2
- Adverse reaction: Red urine (Sprague-Dawley rats [6]; [12]): 8
- Adverse reaction: Slower breathing, Tetany convulsion (Sprague-Dawley rats [6]; [12]): 0
- Adverse reaction: Systemic stiffness, Convulsions, Opisthotonus (Sprague-Dawley rats [6]; [12]): 8
- Adverse reaction: Tongue stretching (Sprague-Dawley rats [6]; [12]): 0
- Adverse reaction: Tremor (Sprague-Dawley rats [6]; [12]): 0
- ED50 (Sprague-Dawley rats [7]; LORR, up and down method, tail vein, class symbols): ++ (++ indicates that the measured ED50 is in the range of 0.50-1.00 mg/kg (excluding 0.50 mg/kg, including 1.00 mg/kg))
- Approximate therapeutic index (Sprague-Dawley rats [7]): >31.8
- Baseline(S1) corticosterone concentration (adrenal cortex function [8]; Table 17 printed a second time): 153.23 ± 30.91
- Give ACTH 30min later(S2) corticosterone concentration (adrenal cortex function [8]; drug at 2ED50, 30 min after ACTH 25 ug/kg): 277.88 ± 34.56
- Give ACTH 30min later(S2) corticosterone concentration (adrenal cortex function [8]; drug at 2ED50, 30 min after ACTH, Table 17 printed a second time): 277.88 ± 34.56
- Baseline(S1) corticosterone concentration (adrenal cortex function [8]; two hours after dexamethasone 0.5 mg/kg): 153.23 ± 30.91
- After the infusion is stopped: Righting reflex recovery time (SD rats [9]; [13]): 15 to 25 min
- Recovery time after stopping infusion (SD rats [9]; [13]): 25 to 40 min
- Types and incidence of adverse reactions: Hindlimb rigidity (SD rats [9]; [11]): rigidity(2/6)
- Types and incidence of adverse reactions: Red urine (SD rats [9]; [11]): Red urine(6/6), Hindlimb
- Sedation onset time (SD rats [9]; continuous tail vein infusion at 2 times the MIR, SD rats): <5 min
- Minimal lethal dose (Sprague-Dawley rats [10]): >11.5 mg/kg

Compound: CCOCC(=O)c1ccnn1[C@H](C)c1ccccc1 [Compound C2]
- Minimal lethal dose (Sprague-Dawley rats [1]): >12.4 mg/kg
- Give ACTH 30min later(S2) corticosterone concentration (adrenal cortex function [2]): 242.12 ± 46.22
- Baseline(S1) corticosterone concentration (adrenal cortex function [2]): 163.22 ± 35.11
- After the infusion is stopped: Righting reflex recovery time (SD rats [3]): 10 to 15 min
- Recovery time after stopping infusion (SD rats [3]): 20 to 30 min
- Types and incidence of adverse reactions: Red urine (SD rats [3]; [11]): 6/6
- Types and incidence of adverse reactions: Tongue stretching (SD rats [3]; [11]): Tongue stretching(4/6)
- Types and incidence of adverse reactions: Tremor (SD rats [3]; [11]): 3/6
- Sedation onset time (SD rats [3]): <5 min
- Righting reflex duration (Sprague-Dawley rats [4]): 1.78 ± 0.53 min
- Sedation duration (Sprague-Dawley rats [4]): 5.38 ± 0.78 min
- Onset time (Sprague-Dawley rats [4]): <30 s
- Adverse reaction: Convulsions (Sprague-Dawley rats [4]): 0
- Adverse reaction: Cough, broken-winded (Sprague-Dawley rats [4]): 0
- Adverse reaction: Euphoria (Sprague-Dawley rats [4]): 0
- Adverse reaction: Red urine (Sprague-Dawley rats [4]): 8
- Adverse reaction: Slower breathing, Tetany convulsion (Sprague-Dawley rats [4]): 0
- Adverse reaction: Systemic stiffness, Convulsions, Opisthotonus (Sprague-Dawley rats [4]): 0
- Adverse reaction: Tongue stretching (Sprague-Dawley rats [4]): 2
- Adverse reaction: Tremor (Sprague-Dawley rats [4]): 0
- Adverse reaction: the four limbs rigidity (Sprague-Dawley rats [4]): 0
- ED50 (Sprague-Dawley rats [5]): ++++ (++++ indicates that the measured ED50 is in the range of 2.00-10.00 mg/kg (excluding 2.00 mg/kg, including 6.00 mg/kg))
- Approximate therapeutic index (Sprague-Dawley rats [5]): >2.5

Compound: C#CCOCC(=O)c1cc(F)nn1[C@H](C)c1ccccc1 [Compound C15]
- Minimal lethal dose (Sprague-Dawley rats [1]): >16.8 mg/kg
- Give ACTH 30min later(S2) corticosterone concentration (adrenal cortex function [2]): 267.99 ± 33.20
- Baseline(S1) corticosterone concentration (adrenal cortex function [2]): 145.90 ± 54.33
- After the infusion is stopped: Righting reflex recovery time (SD rats [3]): 16 to 18 min
- Recovery time after stopping infusion (SD rats [3]): 30 to 36 min
- Types and incidence of adverse reactions: Red urine (SD rats [3]; [11]): 6/6
- Types and incidence of adverse reactions: Tremor (SD rats [3]; [11]): 1/6
- Sedation onset time (SD rats [3]): <5 min
- Righting reflex duration (Sprague-Dawley rats [4]): 2.13 ± 0.59 min
- Sedation duration (Sprague-Dawley rats [4]): 5.3 ± 0.92 min
- Onset time (Sprague-Dawley rats [4]): <30 s
- Adverse reaction: Convulsions (Sprague-Dawley rats [4]): 0
- Adverse reaction: Cough, broken-winded (Sprague-Dawley rats [4]): 0
- Adverse reaction: Euphoria (Sprague-Dawley rats [4]): 0
- Adverse reaction: Red urine (Sprague-Dawley rats [4]): 8
- Adverse reaction: Slower breathing, Tetany convulsion (Sprague-Dawley rats [4]): 0
- Adverse reaction: Systemic stiffness, Convulsions, Opisthotonus (Sprague-Dawley rats [4]): 0
- Adverse reaction: Tongue stretching (Sprague-Dawley rats [4]): 0
- Adverse reaction: Tremor (Sprague-Dawley rats [4]): 1
- Adverse reaction: the four limbs rigidity (Sprague-Dawley rats [4]): 0
- ED50 (Sprague-Dawley rats [5]): ++++ (++++ indicates that the measured ED50 is in the range of 2.00-10.00 mg/kg (excluding 2.00 mg/kg, including 6.00 mg/kg))
- Approximate therapeutic index (Sprague-Dawley rats [5]): >3.4
